Test results from patent publication US9708314B2, “Heterocyclic amide compound” (NISSAN CHEMICAL INDUSTRIES, LTD., priority 2013, dated 2017).

Legend:
Format in all cases: in vivo
[1] = tested on: Echinochloa oryzacola Vasing.; test: Test Example 2: herbicidal activity, application during weed generation in submerged conditions; conditions: Eighteenth Table; application herbicide amount 320 g/ha
Outline: (§1)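 Alluvial soil in Wagner pots flooded to 4 cm water depth; seeds sown mixed, grown in greenhouse at 25–30 °C. At one- to two-leaf stage, emulsion diluted with water to the set rate (g/ha) was applied to the water surface. Effect scored 0–5 by herbicidal ratio three weeks later.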

Scirpus juncoides = test: as above; conditions: Eighteenth Table; application herbicide amount 320 g/ha
Outline: as §1

Monochoria vaginalis = test: as above; conditions: Eighteenth Table; application herbicide amount 320 g/ha
Outline: as §1

Zea mays = test: Test Example 4: effect on crop by application to foliage (diluvial soil, plastic box); conditions: for b (Zea mays) effect on crop: application to foliage, application herbicide amount 320 g/ha
Outline: (§2)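 Scores run from 0 (herbicidal ratio ≤5%) to 5 (≥90%, almost fully withered) and were assessed three weeks after foliar spraying. Seedlings had been raised for 14 days at 25-30° C in sterilized diluvial soil before treatment, with the emulsion diluted in water to the stated g/ha dose.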

[2] = tested on: directly sowed Oryza sativa; test: as above; conditions: for d (directly sowed Oryza sativa) effect on crop: application to foliage, application herbicide amount 320 g/ha
Outline: as §2

Brassica campestris L. = test: as above; conditions: for g (Brassica campestris L.) effect on crop: application to foliage, application herbicide amount 320 g/ha
Outline: as §2

Triticum aestivum = test: as above; conditions: for e (Triticum aestivum) effect on crop: application to foliage, application herbicide amount 320 g/ha
Outline: as §2

[3] = tested on: Beta vulgaris ssp. vulgaris; test: as above; conditions: for f (Beta vulgaris ssp. vulgaris) effect on crop: application to foliage, application herbicide amount 320 g/ha
Outline: as §2

Glycine max = test: as above; conditions: for c (Glycine max) effect on crop: application to foliage, application herbicide amount 320 g/ha
Outline: as §2

Chenopodium album = test: Test Example 4: herbicidal effect by application to foliage (diluvial soil, plastic box); conditions: for O (Chenopodium album) herbicidal effect: application to foliage, application herbicide amount 320 g/ha
Outline: as §2

Setaria viridis = test: as above; conditions: for G (Setaria viridis) herbicidal effect: application to foliage, application herbicide amount 320 g/ha
Outline: as §2

Apera spica-venti. = test: as above; conditions: for L (Apera spica-venti.) herbicidal effect: application to foliage, application herbicide amount 320 g/ha
Outline: as §2

Lolium multiflorum Lam. = test: as above; conditions: for K (Lolium multiflorum Lam.) herbicidal effect: application to foliage, application herbicide amount 320 g/ha
Outline: as §2

Digitaria ciliaris = test: as above; conditions: for F (Digitaria ciliaris) herbicidal effect: application to foliage, application herbicide amount 320 g/ha
Outline: as §2

Abutilon theophrasti = test: as above; conditions: for M (Abutilon theophrasti) herbicidal effect: application to foliage, application herbicide amount 320 g/ha
Outline: as §2

Avena fatua = test: as above; conditions: for I (Avena fatua) herbicidal effect: application to foliage, application herbicide amount 320 g/ha
Outline: as §2

[4] = tested on: Echinochloa crus-galli var. crus-galli; test: as above; conditions: for H (Echinochloa crus-galli var. crus-galli) herbicidal effect: application to foliage, application herbicide amount 320 g/ha
Outline: as §2

Galium spurium = test: as above; conditions: for Q (Galium spurium) herbicidal effect: application to foliage, application herbicide amount 320 g/ha
Outline: as §2

Veronica persica = test: as above; conditions: for R (Veronica persica) herbicidal effect: application to foliage, application herbicide amount 320 g/ha
Outline: as §2

Alopecurus myosuroides = test: as above; conditions: for J (Alopecurus myosuroides) herbicidal effect: application to foliage, application herbicide amount 320 g/ha
Outline: as §2

[5] = Application herbicide amount 320 g/ha, effect on crop
[6] = Application herbicide amount 320 g/ha

## COCCc1nnc(NC(=O)c2ccc(C(F)(F)F)n3c(C(C)C)nnc23)o1 [1-052]
[1]
  A (Echinochloa oryzicola Vasing.) herbicidal ratio grade: 1 (Herbicidal ratio of 5% or more and less than 20%)
Scirpus juncoides
  B (Scirpus juncoides) herbicidal ratio grade: 1 (Herbicidal ratio of 5% or more and less than 20%)
Monochoria vaginalis
  C (Monochoria vaginalis) herbicidal ratio grade: 0 (Herbicidal ratio of 5% or less (almost no effect))
Zea mays
  b (Zea mays) effect on crop: 0 (Herbicidal ratio of 5% or less (almost no effect))
[2]
  d (directly sowed Oryza sativa) effect on crop: 2 (Herbicidal ratio of 20% or more and less than 40%)
Brassica campestris L.
  g (Brassica campestris L.) effect on crop: 3 (Herbicidal ratio of 40% or more and less than 70%)
Triticum aestivum
  e (Triticum aestivum) effect on crop: 0 (Herbicidal ratio of 5% or less (almost no effect))
[3]
  f (Beta vulgaris ssp. vulgaris) effect on crop: 3 (Herbicidal ratio of 40% or more and less than 70%)
Glycine max
  c (Glycine max) effect on crop: 0 (Herbicidal ratio of 5% or less (almost no effect))
Chenopodium album
  O (Chenopodium album) herbicidal effect: 5 (Herbicidal ratio of 90% or more (almost completely withered))
Setaria viridis
  G (Setaria viridis) herbicidal effect: 1 (Herbicidal ratio of 5% or more and less than 20%)
Apera spica-venti.
  L (Apera spica-venti.) herbicidal effect: 3 (Herbicidal ratio of 40% or more and less than 70%)
Lolium multiflorum Lam.
  K (Lolium multiflorum Lam.) herbicidal effect: 1 (Herbicidal ratio of 5% or more and less than 20%)
Digitaria ciliaris
  F (Digitaria ciliaris) herbicidal effect: 3 (Herbicidal ratio of 40% or more and less than 70%)
Abutilon theophrasti
  M (Abutilon theophrasti) herbicidal effect: 4 (Herbicidal ratio of 70% or more and less than 90%)
Avena fatua
  I (Avena fatua) herbicidal effect: 0 (Herbicidal ratio of 5% or less (almost no effect))
[4]
  H (Echinochloa crus-galli var. crus-galli) herbicidal effect: 2 (Herbicidal ratio of 20% or more and less than 40%)
Galium spurium
  Q (Galium spurium) herbicidal effect: 1 (Herbicidal ratio of 5% or more and less than 20%)
Veronica persica
  R (Veronica persica) herbicidal effect: 3 (Herbicidal ratio of 40% or more and less than 70%)
Alopecurus myosuroides
  J (Alopecurus myosuroides) herbicidal effect: 1 (Herbicidal ratio of 5% or more and less than 20%)

## Cc1nnc(NC(=O)c2ccc(C(F)(F)F)n3c(CC(=O)O)nnc23)o1 [1-048]
[1]
  A (Echinochloa oryzicola Vasing.) herbicidal ratio grade: 0 (Herbicidal ratio of 5% or less (almost no effect))
Scirpus juncoides
  B (Scirpus juncoides) herbicidal ratio grade: 1 (Herbicidal ratio of 5% or more and less than 20%)
Monochoria vaginalis
  C (Monochoria vaginalis) herbicidal ratio grade: 0 (Herbicidal ratio of 5% or less (almost no effect))
Zea mays
  b (Zea mays) effect on crop: 0 (Herbicidal ratio of 5% or less (almost no effect))
[2]
  d (directly sowed Oryza sativa) effect on crop: 4 (Herbicidal ratio of 70% or more and less than 90%)
Brassica campestris L.
  g (Brassica campestris L.) effect on crop: 4 (Herbicidal ratio of 70% or more and less than 90%)
Triticum aestivum
  e (Triticum aestivum) effect on crop: 1 (Herbicidal ratio of 5% or more and less than 20%)
[3]
  f (Beta vulgaris ssp. vulgaris) effect on crop: 5 (Herbicidal ratio of 90% or more (almost completely withered))
Glycine max
  c (Glycine max) effect on crop: 0 (Herbicidal ratio of 5% or less (almost no effect))
Chenopodium album
  O (Chenopodium album) herbicidal effect: 5 (Herbicidal ratio of 90% or more (almost completely withered))
Setaria viridis
  G (Setaria viridis) herbicidal effect: 3 (Herbicidal ratio of 40% or more and less than 70%)
Apera spica-venti.
  L (Apera spica-venti.) herbicidal effect: 2 (Herbicidal ratio of 20% or more and less than 40%)
Lolium multiflorum Lam.
  K (Lolium multiflorum Lam.) herbicidal effect: 1 (Herbicidal ratio of 5% or more and less than 20%)
Digitaria ciliaris
  F (Digitaria ciliaris) herbicidal effect: 5 (Herbicidal ratio of 90% or more (almost completely withered))
Abutilon theophrasti
  M (Abutilon theophrasti) herbicidal effect: 5 (Herbicidal ratio of 90% or more (almost completely withered))
Avena fatua
  I (Avena fatua) herbicidal effect: 2 (Herbicidal ratio of 20% or more and less than 40%)
[4]
  H (Echinochloa crus-galli var. crus-galli) herbicidal effect: 5 (Herbicidal ratio of 90% or more (almost completely withered))
Galium spurium
  Q (Galium spurium) herbicidal effect: 3 (Herbicidal ratio of 40% or more and less than 70%)
Veronica persica
  R (Veronica persica) herbicidal effect: 4 (Herbicidal ratio of 70% or more and less than 90%)
Alopecurus myosuroides
  J (Alopecurus myosuroides) herbicidal effect: 1 (Herbicidal ratio of 5% or more and less than 20%)

## COCCOCc1nnc2c(C(=O)Nc3nnc(C)o3)ccc(C(F)(F)F)n12 [1-019]
[1]
  A (Echinochloa oryzicola Vasing.) herbicidal ratio grade: 4 (Herbicidal ratio of 70% or more and less than 90%)
Scirpus juncoides
  B (Scirpus juncoides) herbicidal ratio grade: 3 (Herbicidal ratio of 40% or more and less than 70%)
Monochoria vaginalis
  C (Monochoria vaginalis) herbicidal ratio grade: 3 (Herbicidal ratio of 40% or more and less than 70%)
Zea mays
  b (Zea mays) effect on crop: 2 (Herbicidal ratio of 20% or more and less than 40%)
[2]
  d (directly sowed Oryza sativa) effect on crop: 4 (Herbicidal ratio of 70% or more and less than 90%)
Brassica campestris L.
  g (Brassica campestris L.) effect on crop: 4 (Herbicidal ratio of 70% or more and less than 90%)
Triticum aestivum
  e (Triticum aestivum) effect on crop: 3 (Herbicidal ratio of 40% or more and less than 70%)
[3]
  f (Beta vulgaris ssp. vulgaris) effect on crop: 5 (Herbicidal ratio of 90% or more (almost completely withered))
Glycine max
  c (Glycine max) effect on crop: 2 (Herbicidal ratio of 20% or more and less than 40%)
Chenopodium album
  O (Chenopodium album) herbicidal effect: 5 (Herbicidal ratio of 90% or more (almost completely withered))
Setaria viridis
  G (Setaria viridis) herbicidal effect: 4 (Herbicidal ratio of 70% or more and less than 90%)
Apera spica-venti.
  L (Apera spica-venti.) herbicidal effect: 4 (Herbicidal ratio of 70% or more and less than 90%)
Lolium multiflorum Lam.
  K (Lolium multiflorum Lam.) herbicidal effect: 2 (Herbicidal ratio of 20% or more and less than 40%)
Digitaria ciliaris
  F (Digitaria ciliaris) herbicidal effect: 5 (Herbicidal ratio of 90% or more (almost completely withered))
Abutilon theophrasti
  M (Abutilon theophrasti) herbicidal effect: 4 (Herbicidal ratio of 70% or more and less than 90%)
Avena fatua
  I (Avena fatua) herbicidal effect: 3 (Herbicidal ratio of 40% or more and less than 70%)
[4]
  H (Echinochloa crus-galli var. crus-galli) herbicidal effect: 5 (Herbicidal ratio of 90% or more (almost completely withered))
Galium spurium
  Q (Galium spurium) herbicidal effect: 4 (Herbicidal ratio of 70% or more and less than 90%)
Veronica persica
  R (Veronica persica) herbicidal effect: 4 (Herbicidal ratio of 70% or more and less than 90%)
Alopecurus myosuroides
  J (Alopecurus myosuroides) herbicidal effect: 2 (Herbicidal ratio of 20% or more and less than 40%)

## CSCCc1nnc2c(C(=O)Nc3nnc(C)o3)ccc(C(F)(F)F)n12 [1-083]
[1]
  A (Echinochloa oryzicola Vasing.) herbicidal ratio grade: 2 (Herbicidal ratio of 20% or more and less than 40%)
Scirpus juncoides
  B (Scirpus juncoides) herbicidal ratio grade: 2 (Herbicidal ratio of 20% or more and less than 40%)
Monochoria vaginalis
  C (Monochoria vaginalis) herbicidal ratio grade: 2 (Herbicidal ratio of 20% or more and less than 40%)
Zea mays; [5]
  b: 1 (Herbicidal ratio of 5% or more and less than 20%)
[2]; [5]
  d: 4 (Herbicidal ratio of 70% or more and less than 90%)
Brassica campestris L.; [5]
  g: 4 (Herbicidal ratio of 70% or more and less than 90%)
Triticum aestivum; [5]
  e: 1 (Herbicidal ratio of 5% or more and less than 20%)
[3]; [5]
  f: 5 (Herbicidal ratio of 90% or more (almost completely withered))
Glycine max; [5]
  c: 1 (Herbicidal ratio of 5% or more and less than 20%)
Chenopodium album; [6]
  O: 5 (Herbicidal ratio of 90% or more (almost completely withered))
Setaria viridis; [6]
  G: 5 (Herbicidal ratio of 90% or more (almost completely withered))
Apera spica-venti.; [6]
  L: 0 (Herbicidal ratio of 5% or less (almost no effect))
Lolium multiflorum Lam.; [6]
  K: 1 (Herbicidal ratio of 5% or more and less than 20%)
Digitaria ciliaris; [6]
  F: 5 (Herbicidal ratio of 90% or more (almost completely withered))
Abutilon theophrasti; [6]
  M: 5 (Herbicidal ratio of 90% or more (almost completely withered))
Avena fatua; [6]
  I: 3 (Herbicidal ratio of 40% or more and less than 70%)
[4]; [6]
  H: 5 (Herbicidal ratio of 90% or more (almost completely withered))
Galium spurium; [6]
  Q: 4 (Herbicidal ratio of 70% or more and less than 90%)
Veronica persica; [6]
  R: 4 (Herbicidal ratio of 70% or more and less than 90%)
Alopecurus myosuroides; [6]
  J: 0 (Herbicidal ratio of 5% or less (almost no effect))
